The target of assay [1] is T1, NLuc-BRSK2 in HEK293 cells (Homo sapiens, UniProt Q8IWQ3).
T1 construct: host or cells: HEK293
T1 sequence (Q8IWQ3 1-736): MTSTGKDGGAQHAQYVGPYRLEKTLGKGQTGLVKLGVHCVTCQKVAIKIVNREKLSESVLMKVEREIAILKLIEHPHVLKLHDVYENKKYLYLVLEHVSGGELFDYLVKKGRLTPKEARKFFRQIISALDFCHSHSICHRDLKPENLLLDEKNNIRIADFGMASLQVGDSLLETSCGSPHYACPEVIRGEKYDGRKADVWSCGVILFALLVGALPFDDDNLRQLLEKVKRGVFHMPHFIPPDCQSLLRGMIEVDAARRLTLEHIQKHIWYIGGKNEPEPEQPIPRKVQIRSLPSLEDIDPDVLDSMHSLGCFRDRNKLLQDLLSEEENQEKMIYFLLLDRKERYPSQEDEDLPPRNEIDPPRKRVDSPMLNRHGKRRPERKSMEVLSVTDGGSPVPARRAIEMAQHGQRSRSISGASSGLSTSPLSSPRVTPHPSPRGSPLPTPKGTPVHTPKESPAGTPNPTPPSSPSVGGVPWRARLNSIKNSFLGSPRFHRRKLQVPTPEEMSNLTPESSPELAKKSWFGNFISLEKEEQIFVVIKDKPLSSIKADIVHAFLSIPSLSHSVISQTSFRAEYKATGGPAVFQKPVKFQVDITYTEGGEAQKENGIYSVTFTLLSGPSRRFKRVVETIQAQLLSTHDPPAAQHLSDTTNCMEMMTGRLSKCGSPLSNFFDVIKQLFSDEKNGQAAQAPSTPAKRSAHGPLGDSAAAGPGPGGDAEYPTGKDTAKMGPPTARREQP
As to the kind of experiment: BRSK2 NanoBRET cellular target engagement assay. The format is cell-based. The settings on record: HEK293 cells transiently expressing NLuc-BRSK2, Tracer K5 1 μM, N = 3. The method, then: Our interest in illuminating BRSK2 biology motivated further investigation of the cellular target engagement of BRSK2 by GW296115 using our NanoBRET assay. BRSK2 kinase was fused to 19-kDa luciferase (NLuc) at its N-terminus (NLuc–BRSK2) which was transiently expressed in HEK293 cells, and then incubated with a cell-permeable fluorescent energy transfer probe (tracer)[23].
NanoBRET assays were executed as described previously. Constructs for BRSK2 NanoBRET measurements were provided in kind by Promega. The N-terminal Nanoluciferase (NL)/BRSK2 fusion (NL-BRSK2) was encoded in pFN32K expression vector, including flexible Gly-Ser-Ser-Gly linkers between NL and BRSK2 (Promega). For cellular BRSK2 NanoBRET target engagement experiments, a 10 μg/mL solution of DNA in Opti-MEM without serum (Gibco) was prepared with 9 μg/mL of Carrier DNA (Promega) and 1 μg/mL of NL-BRSK2 to achieve a total volume of 1.05 mL. To this solution was then added 31.5 μL of FuGENE HD (Promega) to form a lipid:DNA complex, mixed by inversion 8 times, and incubated at room temperature for 20 min. The resulting transfection complex (1.082 mL) was next gently mixed with HEK293 cells (21 mL) suspended at a density of 2 × 10^5 cells/mL in DMEM containing 10% FBS.
After 24 h, media was removed via aspiration and 85 μL of room temperature Opti-MEM without phenol red (Gibco) was added to each well. […] Next, 5 μL (20 × working stock of NanoBRET Tracer K5 [20 μM] in Tracer Dilution Buffer (Promega N291B)) was added to each well with the exception of the “no tracer” control wells. Test compounds were prepared as concentrated stock solutions in 100% DMSO (Sigma) at a concentration of 10 mM. […] A volume of 10 μL of tenfold test compound stock solutions (final assay concentration of […]) was added to each well. For “no compound” and “no tracer” control wells, 10 μL of Opti-MEM plus DMSO (9 μL Opti-MEM plus 1 μL DMSO) was added to each well to achieve a final concentration of 1% DMSO.
After 2 h, plates were returned to room temperature over the course of 15 min. […] Next, 50 μL of the 3 × substrate/extracellular NL inhibitor stock was added to each well.
Test compounds were evaluated at 8 concentrations in competition with NanoBRET Tracer K5 in HEK293 cells transiently expressing the NL-BRSK2 fusion protein. Raw milliBRET (mBRET) values were obtained by dividing the acceptor emission values (600 nm) by the donor emission values (450 nm), and then multiplying by 1000. Averaged control values were used to represent complete inhibition (no tracer control: transfected cells in Opti-MEM + DMSO; tracer control: transfected cells in Opti-MEM + DMSO + Tracer K5 only), and were plotted alongside the raw mBRET values. The data with n = 3 biological replicates was first normalized and then fit using Sigmoidal, 4PL binding curve in Prism Software (version 8, GraphPad, La Jolla, CA, USA).
Background: BRET reads energy transfer from a luciferase to a nearby fluorophore.

The target of assay [2] is T2, BRSK2 (Homo sapiens, UniProt Q8IWQ3).
T2 sequence (Q8IWQ3 1-736): T1 sequence (Q8IWQ3 1-736)
The arrangement: purchased Eurofins. The settings on record: 0.5 μM; cited from earlier work.

Where [3] appears, read: read-out: BRSK2 NanoBRET data IC50.

Several values for one entry are separate records, joined by “and”; a condition that tells them apart may be missing. Equal values may be shown once. Read-outs that look alike come from different tables or passages of the source.

As for `O=C1NC(=O)c2c1c1c3ccccc3[nH]c1c1[nH]c3cc(Br)ccc3c21` [CDK4 inhibitor], the IC50 (commonly the point on the concentration scale where inhibition reaches its midpoint) in assay [1] (setting [3]) was determined as 1330 ± 230 nM.

For `COC(=O)C1(O)CC2OC1(C)n1c3ccccc3c3c4c(c5c6ccccc6n2c5c31)C(=O)NC4` (stereo not shown) [K-252a], the IC50 in assay [1] (BRSK2 NanoBRET data IC50 (nM)) is 20.2 nM and < 100 nM. Consider `O=C1NC(=O)C(c2c[nH]c3ccccc23)=C1c1c[nH]c2ccccc12` [Bisindolylmaleimide IV, bisindolylmaleimide IV], for which, in assay [2], the “biochemical inhibition of BRSK2” value is listed as “weak biochemical inhibition”. `O=C1NC(=O)c2c1c1c3ccccc3[nH]c1c1[nH]c3ccccc3c21` [Arcyriaflavin A]: the IC50 in assay [1] (setting [3]) is 7680 ± 3500 nM. Same read-out and setting: then `O=C1NC(=O)c2c1c1c3ccccc3n3c1c1c2c2ccccc2n1C1CCC3O1` [SB 218078], with 883 ± 200 nM. Consider `O=C1NCc2c1c1c3ccccc3[nH]c1c1[nH]c3ccccc3c21` [K-252c], for which the IC50 in assay [1] (BRSK2 NanoBRET data IC50 (nM)) came out at 308 ± 250 nM. Turning to `Cn1c2ccccc2c2c3c(c4c5ccccc5n(CCC#N)c4c21)CNC3=O` [Gö 6976], the IC50 in assay [1] (setting [3]) worked out at 914 ± 640 nM.

The values are drawn from article PMC7522982, “PKIS deep dive yields a chemical starting point for dark kinases and a cell active BRSK2 inhibitor” (Scientific Reports, 2020).
